We go through three compounds from patent US20170151200A1, “PROPHYLACTIC OR THERAPEUTIC AGENT FOR IDIOPATHIC INFLAMMATORY MYOPATHIES” (EA Pharma Co., Ltd., priority 2012, published 2017).

The test system of assay [1] is C-protein-induced mouse myositis model (CIM mouse). In words: Sectional area of fast muscle fiber (MHC IIB-positive) of triceps in CIM mouse. It is filed as in vivo. The note with it: triceps 21 days after immunization, 0.75 g/kg BCAA or 20 mg/kg PSL oral, histogram shift toward the left side = atrophy, FIG. 4. The method, then: (§1) Using C-protein-induced mouse myositis model (C-protein-induced Myositis: CIM), the effect of BCAA on the inflammation of muscular tissues was examined. For antigen immunization of C57BL/6 mouse (female, 8-week-old), an adjuvant containing 200 μg C-protein and 100 μg killed tuberculosis bacterium (Mycobacterium butyricum), and Complete Freund's adjuvant (CFA) as a component was intradermally injected to the hindpaw sole and tail base, C-protein-free CFA injected to the base of forelimb, and 0.25 μg pertussis toxin was intraperitoneally injected. As an adjuvant control without immunization with an antigen, CFA was intradermally injected to the same sites. […] After 21 days from immunization, the muscle was collected, and the levels of inflammation of quadriceps and flexor muscles were evaluated by the inflammation score.
Since steroid myopathy is predominantly developed in the fast muscle fiber (MHC IIB-positive fiber), atrophy of the muscle fiber of the CIM mouse was evaluated by measuring the sectional area of the muscle fiber. The boundary area of the fast muscle fiber and the muscle fiber of the section of the triceps collected 21 days after the immunization was labeled by immune fluorescent staining using anti-MHC IIB antibody and anti-Laminin antibody (Sigma), and the sectional area of the MHC IIB-positive muscle fiber was measured using Image J software (NIH). […]

Assay [2] has the same test system. In words: Inflammation score of muscular tissue in C-protein-induced mouse myositis model (CIM). In kind it is in vivo. The note with it: 0.75 g/kg BCAA or 20 mg/kg PSL oral consecutively from 3 days after immunization, 21 days after immunization, vs Vehicle group, FIG. 1. As for the experimental part:
Using C-protein-induced mouse myositis model (C-protein-induced Myositis: CIM), the effect of BCAA on the inflammation of muscular tissues was examined. For antigen immunization of C57BL/6 mouse (female, 8-week-old), an adjuvant containing 200 μg C-protein and 100 μg killed tuberculosis bacterium (Mycobacterium butyricum), and Complete Freund's adjuvant (CFA) as a component was intradermally injected to the hindpaw sole and tail base, C-protein-free CFA injected to the base of forelimb, and 0.25 μg pertussis toxin was intraperitoneally injected. As an adjuvant control without immunization with an antigen, CFA was intradermally injected to the same sites. From three days after immunization, 0.75 g/kg BCAA (mixture of isoleucine, leucine and valine at a weight ratio of isoleucine:leucine:valine=1:2:1.2) or 20 mg/kg Prednisolone (PSL) was orally administered consecutively, and they were used as the BCAA administration group and the PSL administration group, respectively. In addition, 0.5% methylcellulose and 5% gamma cyclodextrin were orally administered instead of BCAA and the like to give the Vehicle administration group. After 21 days from immunization, the muscle was collected, and the levels of inflammation of quadriceps and flexor muscles were evaluated by the inflammation score. […]

For assay [3] the test system is unchanged. In words: Forelimb muscle strength by grip dynamometer in CIM mouse. It is filed as in vivo. The note with it: 20 days after immunization. As for the experimental part:
as §1
After 20 days from immunization, the muscle strength of the forelimb of each mouse was measured by a veterinary grip dynamometer MK-380CM/R (Muromachi Kikai Co., Ltd.). The measurement was performed 6 times for each animal, and the average thereof was determined. […]
The muscle strength of the forelimb of each mouse was measured after 20 days from the immunization in Example 5 using veterinary grip dynamometer MK-380CM/R (Muromachi Kikai Co., Ltd.). The measurement was performed 6 times for each animal, and the average thereof was determined.

The test system is the same in assay [4]. In words: Muscle weight (quadriceps, hamstring/flexor muscles, triceps) in CIM mouse. In kind it is in vivo. Conditions: 21 days after immunization. As for the experimental part:
as §1
Quadriceps, flexor muscles and triceps were collected from the CIM mouse and control mouse (Ctrl) after 21 days from immunization, and the muscle weight was measured. […]
Quadriceps, hamstrings, and triceps were collected from the CIM mouse and control mouse (Ctrl) of Example 5 after 21 days from the immunization, and the muscle weight was measured.

The test system of assay [5] is patients with polymyositis, dermatomyositis and inclusion body myositis. Conditions: cited from earlier work.

In the case of `C[C@]12C=CC(=O)C=C1CC[C@@H]1[C@@H]2[C@@H](O)C[C@@]2(C)[C@H]1CC[C@]2(O)C(=O)CO` [PSL, Prednisolone], in assay [1], the “distribution of fast muscle fiber sectional area (muscle fiber atrophy)” value is given as “tendency was stronger”. In addition, the inflammation score result in assay [2] was “significantly suppressed”. In addition, the “strength of the forelimb muscle” value in assay [3] (CIM mouse of Example 5, 0.25, 0.75 or 2.25 g/kg BCAA + 20 mg/kg PSL, or 20 mg/kg PSL alone, oral, FIG. 7) is listed as “did not increase”. Further, the “muscle strength of the forelimb” value in assay [3] (CIM mouse, 0.75 g/kg BCAA or 20 mg/kg PSL oral, FIG. 3) is reported as “improvement effect was weak”. Also, the muscle weight entry in assay [4] (CIM mouse of Example 5, 0.25, 0.75 or 2.25 g/kg BCAA + 20 mg/kg PSL, or 20 mg/kg PSL alone, oral, FIG. 6) is given as “did not increase”; in assay [4] (CIM mouse, 0.75 g/kg BCAA or 20 mg/kg PSL oral, quadriceps, flexor muscles, triceps, FIG. 2), “did not show improvement”.

As for Anakinra: IL-1 receptor antagonist, the anti-inflammatory effect result in assay [5] (polymyositis and dermatomyositis, Ann Rheum Dis. 2011;70:A80-A81) is recorded as “has not been observed”.

With “Infliximab: anti-TNF antibody effective for rheumatoid arthritis”, the “effect on inflammation in patients” value in assay [5] (patients with polymyositis, dermatomyositis and inclusion body myositis, Ann Rheum Dis. 2008;67(12):1670-7) is “aggravation of inflammation and activation of type I interferons”.
